The text below walks through data of patent publication US5519138A, “Phenylalkyl derivatives, with pharmaceutical activity” (Dr. Karl Thomae GmbH, priority 1991, dated 1996).

The term IC50 denotes the concentration that inhibits the measured activity by half.

In the first test the target is T1, Angiotensin II-receptor (Rattus norvegicus, UniProt P25095).
T1 construct: The tissue (rats lung) is homogenised in Tris-buffer; from tissue; host or cells: rat lung homogenate (washed 20,000x g pellet)
T1 sequence (P25095 1-359): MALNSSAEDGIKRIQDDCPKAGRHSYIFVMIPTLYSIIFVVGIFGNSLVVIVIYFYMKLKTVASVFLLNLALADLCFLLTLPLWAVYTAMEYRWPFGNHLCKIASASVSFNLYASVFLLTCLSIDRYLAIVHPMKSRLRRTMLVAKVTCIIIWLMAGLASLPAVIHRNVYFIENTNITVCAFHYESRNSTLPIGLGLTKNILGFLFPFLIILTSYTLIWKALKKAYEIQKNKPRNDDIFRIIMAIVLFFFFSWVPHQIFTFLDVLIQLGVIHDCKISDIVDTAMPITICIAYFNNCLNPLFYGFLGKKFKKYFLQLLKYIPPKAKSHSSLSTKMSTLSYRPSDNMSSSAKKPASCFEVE
The test is described as follows: Angiotensin II-receptor bonding.
Settings: not given
The format is binding. The method, then:
Description of method: Angiotensin II-receptor bonding
The tissue (rats lung) is homogenised in Tris-buffer (50 mMol Tris, 150 mMol NaCl, 5 mMol EDTA, pH 7.40) and centrifuged twice for 20 minutes at 20,000x g. The finished pellets are resuspended in incubating buffer (50 mMol Tris, 5 mMol MgCl2, 0.2% BSA, pH 7.40) 1:75, based on the moist weight of the tissue. Each 0.1 ml of homogenate is incubated for 60 minutes at 37° C. with 50 pM [^125 I]-angiotensin II (NEN, Dreieich, FRG) with increasing concentrations of the test substance in a total volume of 0.25 ml. Incubation is ended by rapid filtration through glass fibre filter mats. The filters are each washed with 4 ml of ice cold buffer (25 mMol Tris, 2.5 mMol MgCl2, 0.1% BSA, pH 7.40). The bound radioactivity is measured using a gamma-counter. The corresponding IC50 value is obtained from the dose-activity curve.
In the test described, substances A to I show the following IC50 values: […]
The compound `CCCCc1nc2ccccc2n1Cc1ccc(NC(c2ccccc2)P(=O)(O)OCC)cc1` (stereo not drawn) [Substance I, 2-n-Butyl-1-[4-[α-(O-ethyl-phosphono)benzylamino]benzyl]benzimidazole] displayed an IC50 of 560 nM.

Still in this test, the particulars now being: rats lung homogenate; 50 pM [^125 I]-angiotensin II; 60 minutes at 37° C.; pH 7.40; read-out: IC50.
Consider `CCCc1nc2c(C)cccc2n1Cc1ccc(OC(C(=O)O)c2ccccc2)cc1` (stereo not drawn) [Substance A, 2-n-Propyl-4-methyl-1-[4-[(α-carboxy)benzyloxy]benzyl]benzimidazole], for which the IC50 is 76 nM.
Consider `CCCCc1nc2ccc(NC(=O)N(C)C)cc2n1Cc1ccc(OC(C(=O)O)c2ccccc2)cc1` (stereo not drawn) [Substance B, 2-n-Butyl-1-[4-[(α-carboxy)benzyloxy]benzyl]-6-dimethylaminocarbonylamino-benzimidazole], for which the IC50 came to 8 nM.
On the same count and under the same terms, for `CCCc1nc2c(C)cc(-c3nc4ccccc4n3C)cc2n1Cc1ccc(OC(C(=O)O)c2ccccc2)cc1` (stereo not drawn) [Substance C, 2-n-Propyl-6-(1-methyl-benzimidazol-2-yl)-4-methyl-1-[4-[(α-carboxy)benzyloxy]benzyl]benzimidazole] the value was 4 nM.
Regarding `Cc1cc(OCc2ccc(OC(C(=O)O)c3ccccc3)cc2)c2ccccc2n1` (stereo not drawn) [Substance D, 2-Methyl-4-[4'-[(α-carboxy)benzyloxy]benzyloxy]quinoline], the half-maximal inhibitory concentration (IC50) was 2000 nM.
In the case of `CCCCc1nc2c(C)cccc2c(=O)n1Cc1ccc(OC(C(=O)O)c2ccccc2)cc1` (stereo not drawn) [Substance E, 2-n-Butyl-8-methyl-3-[4-[(α-carboxy)benzyloxy]benzyl]-quinazolin-4-one-semihydrate], the IC50 was determined as 2000 nM.
For `CCCc1nc2c(C)cc(-c3nc4ccccc4n3C)cc2n1Cc1ccc(OC(c2ccccc2)c2nnn[nH]2)cc1` (stereo not drawn) [Substance F, 2-n-Propyl-4-methyl-6-(1-methyl-benzimidazol-2-yl)-1-[4-[α-(1H-tetrazol-5-yl)benzyloxy]benzyl]benzimidazole], the IC50 was found to be 12 nM.
Turning to `CCCCc1nc2ccc(N(C)C(=O)CC)cc2n1Cc1ccc(OC(CC(C)C)C(=O)O)cc1` (stereo not drawn) [Substance G, 2-n-Butyl-6-(N-propionyl-methylamino)-1-[4-[(1-carboxy-3-methyl)butyloxy]benzyl]benzimidazole], the 50% inhibitory concentration (IC50) amounted to 830 nM.
As for `CCCCc1nc2cc(N3CCCN(Cc4ccccc4)C3=O)c(C)nc2n1Cc1ccc(OC(c2ccccc2)c2nnn[nH]2)cc1` (stereo not drawn) [Substance H, 2-n-Butyl-5-methyl-6-(3-benzyl-3,4,5,6-tetrahydro-2(1H)-pyrimidinon-1-yl)-3-[4-[α-(1H-tetrazol-5-yl)benzyloxy]benzyl]imidazo[4,5-b]pyridine], the concentration for half-maximal inhibition (IC50) was 27 nM.
